Measurements reported in patent US9649314B2, “Pyrimido[4,5-b]quinoline-4,5(3H,10H)-diones” (NOVARTIS AG, priority 2012, dated 2017).
Where two headings read alike, the source gives them in different places.

Test system: CFTR-Y122X
Assay: CFTR-Y122X assay (dual reporter isogenic Hek293 cell lines, Renilla luminescence readthrough)
Assay type: cell-based
Settings: Homo sapiens, HEK293; for Emax at 25 µM: measured at 25 μM compound concentration (footnote a), read-out: Amax [%]: % nonsense mutation suppression relative to paromomycin reference activity
In short: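 Stable isogenic HEK dual-reporter line (eGFP–CFTR Y122X TGA PTC–myc–Renilla); 2000 cells/well, 24 h, then compound (10 μM; tested up to 100 μM) 24 h at 37 °C. Renilla luminescence normalised to neutral (0%) and 14 mM paromomycin (100%); wildtype construct counterscreen.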

[1] = nonsense mutation suppression, 100% = 14 mM paromomycin, 24 h incubation, tested up to 100 μM, read-out: Amax [%]
[2] = nonsense mutation suppression, 24 h incubation
[3] = at the above dose ranges (up to 100 μM), read-out: suppression, % of paromomycin reference activity

Compound | Emax [1] [%] | AC50 [2] [µM] | other results
COC1CC(c2nc3c(c(=O)c4ccccc4n3C)c(=O)n2-c2ccccc2)C1 (stereo not drawn) [Example 1.8, 2-(3-methoxycyclobutyl)-10-methyl-3-phenylpyrimido[4,5-b]quinoline-4,5(3H,10H)-dione] | 18 | 11.8 | –
C=CCn1c2ccccc2c(=O)c2c(=O)n(-c3ccccc3)c(C3CCC3)nc21 [Example 1.4, 10-allyl-2-cyclobutyl-3-phenylpyrimido[4,5-b]quinoline-4,5(3H,10H)-dione] | 279 | 4 | –
COc1ccc(-c2nc3c(c(=O)c4ccccc4n3C)c(=O)n2C2CCCCC2)cc1 [Example 2.27, 3-cyclohexyl-2-(4-methoxyphenyl)-10-methylpyrimido[4,5-b]quinoline-4,5(3H,10H)-dione] | – | – | Emax at 25 µM: 97%
C#Cc1ccc2c(c1)c(=O)c1c(=O)n(C3CCCC3)c(C(C)C)nc1n2C [Example 2.13, 3-cyclopentyl-7-ethynyl-2-isopropyl-10-methylpyrimido[4,5-b]quinoline-4,5(3H,10H)-dione] | 11 | – | –
CC(C)c1nc2c(c(=O)c3cc(Br)ccc3n2C)c(=O)n1C1CCCC1 [Example 2.12, 7-bromo-3-cyclopentyl-2-isopropyl-10-methylpyrimido[4,5-b]quinoline-4,5(3H,10H)-dione] | – | – | Emax at 25 µM: 23%
CC(C)c1nc2[nH]c3ccccc3c(=O)c2c(=O)n1-c1ccccc1 [Example 1.3, 2-isopropyl-3-phenylpyrimido[4,5-b]quinoline-4,5(3H,10H)-dione] | 279 | 6.1 | –
CC(C)c1nc2c(c(=O)c3ccccc3n2C)c(=O)n1-c1c(Cl)cccc1Cl [Example 1.17, 3-(2,6-dichlorophenyl)-2-isopropyl-10-methylpyrimido[4,5-b]quinoline-4,5(3H,10H)-dione] | 230 | 8.8 | –
CC(C)c1nc2c(c(=O)c3cccc4c3n2CC4)c(=O)n1-c1ccccc1 [Example 1.27, 9-isopropyl-8-phenyl-1H-pyrimido[4,5-b]pyrrolo[3,2,1-ij]quinoline-6,7(2H,8H)-dione] | 271 | 6.8 | –
Cn1c2ccccc2c(=O)c2c(=O)n(C3CCCCCC3)c(-c3cccc([N+](=O)[O-])c3)nc21 [Example 2.46, 3-cycloheptyl-10-methyl-2-(3-nitrophenyl)pyrimido[4,5-b]quinoline-4,5(3H,10H)-dione] | 12 | 4.2 | –
Cn1c2ccccc2c(=O)c2c(=O)n(C3CCCCCC3)c(-c3ccc(Cl)cc3)nc21 [2-(4-chlorophenyl)-3-cycloheptyl-10-methylpyrimido[4,5-b]quinoline-4,5(3H,10H)-dione] | – | – | Emax [3]: < 5%
Cn1c2ccccc2c(=O)c2c(=O)n(C3CCCCCC3)c(-c3ccc(C(C)(C)C)cc3)nc21 [2-(4-(tert-butyl)phenyl)-3-cycloheptyl-10-methylpyrimido[4,5-b]quinoline-4,5(3H,10H)-dione] | – | – | Emax [3]: < 5%
NC[C@@H]1O[C@H](O[C@H]2[C@@H](O)[C@H](O[C@@H]3[C@@H](O)[C@H](N)C[C@H](N)[C@H]3O[C@H]3O[C@H](CO)[C@@H](O)[C@H](O)[C@H]3N)O[C@@H]2CO)[C@H](N)[C@@H](O)[C@@H]1O [paromomycin, reference compound] | – | – | EC50 (clone pursued for HTS assay development, read-out: EC50 (readthrough response of the selected clone)): 1500 µM
Cn1c2ccccc2c(=O)c2c(=O)n(C3CCCCC3)c(-c3ccccc3)nc21 [Example 2.16, 3-cyclohexyl-10-methyl-2-phenylpyrimido[4,5-b]quinoline-4,5(3H,10H)-dione] | 312 | 8.6 | –
CC(C)c1nc2c(c(=O)c3cc(C(F)(F)F)ccc3n2C)c(=O)n1-c1ccccc1 [2-isopropyl-10-methyl-3-phenyl-7-(trifluoromethyl)pyrimido[4,5-b]quinoline-4,5(3H,10H)-dione] | – | – | Emax [3]: < 5%
C=CCn1c2ccccc2c(=O)c2c(=O)n(-c3ccccc3)c(C(C)C)nc21 [Example 1.2, 10-allyl-2-isopropyl-3-phenylpyrimido[4,5-b]quinoline-4,5(3H,10H)-dione] | 63 | – | –
CC(C)c1ccccc1-n1c(C(C)C)nc2c(c(=O)c3ccccc3n2C)c1=O [Example 1.38, 2-isopropyl-3-(2-isopropylphenyl)-10-methylpyrimido[4,5-b]quinoline-4,5(3H,10H)-dione] | 15 | – | –
Cn1c2ccccc2c(=O)c2c(=O)n(C3CCCCCC3)c(-c3ccc([N+](=O)[O-])cc3)nc21 [3-cycloheptyl-10-methyl-2-(4-nitrophenyl)pyrimido[4,5-b]quinoline-4,5(3H,10H)-dione] | – | – | Emax [3]: < 5%

Compound | Emax [1] [%] | AC50 [2] [µM] | other results
Cn1c2ccccc2c(=O)c2c(=O)n(C3CCCC3)c(-c3ccc(Cl)cc3)nc21 [2-(4-chlorophenyl)-3-cyclopentyl-10-methylpyrimido[4,5-b]quinoline-4,5(3H,10H)-dione] | – | – | Emax [3]: < 5%
Cc1ccccc1-n1c(C(C)C)nc2c(c(=O)c3ccccc3n2C)c1=O [Example 1.18, 2-isopropyl-10-methyl-3-(o-tolyl)pyrimido[4,5-b]quinoline-4,5(3H,10H)-dione] | 248 | 6.9 | –
Cn1c2ccccc2c(=O)c2c(=O)n(C3CCCC3)c(-c3ccccc3Cl)nc21 [Example 2.35, 2-(2-chlorophenyl)-3-cyclopentyl-10-methylpyrimido[4,5-b]quinoline-4,5(3H,10H)-dione] | 31 | 9.4 | –
Cn1c2ccccc2c(=O)c2c(=O)n(C3CCCCCC3)c(-c3cccc(Br)c3)nc21 [Example 2.50, 2-(3-bromophenyl)-3-cycloheptyl-10-methylpyrimido[4,5-b]quinoline-4,5(3H,10H)-dione] | 6 | 4.4 | –
Cc1cc(C)cc(-n2c(C3CCCCC3)nc3c(c(=O)c4ccccc4n3C)c2=O)c1 [2-cyclohexyl-3-(3,5-dimethylphenyl)-10-methylpyrimido[4,5-b]quinoline-4,5(3H,10H)-dione] | – | – | Emax [3]: < 5%
CCCn1c2ccccc2c(=O)c2c(=O)n(-c3ccccc3)c(C(C)C)nc21 [Example 1.44, 2-isopropyl-3-phenyl-10-propylpyrimido[4,5-b]quinoline-4,5(3H,10H)-dione] | 118 | 15.2 | –
COc1ccc2c(c1)c(=O)c1c(=O)n(C3CCCC3)c(C(C)C)nc1n2C [Example 2.10, 3-cyclopentyl-2-isopropyl-7-methoxy-10-methylpyrimido[4,5-b]quinoline-4,5(3H,10H)-dione] | 25 | 25 | –
CCCCCc1nc2c(c(=O)c3ccccc3n2C)c(=O)n1C1CCCCCC1 [Example 2.25, 3-cycloheptyl-10-methyl-2-pentylpyrimido[4,5-b]quinoline-4,5(3H,10H)-dione] | 149 | 6.4 | –
Cn1c2ccccc2c(=O)c2c(=O)n(C3CCCC3)c(-c3ccco3)nc21 [Example 2.49, 3-cyclopentyl-2-(furan-2-yl)-10-methylpyrimido[4,5-b]quinoline-4,5(3H,10H)-dione] | 7 | 1.8 | –
CC(C)Cc1nc2c(c(=O)c3ccccc3n2C)c(=O)n1C1CCCC1 [Example 2.5, 3-cyclopentyl-2-isobutyl-10-methylpyrimido[4,5-b]quinoline-4,5(3H,10H)-dione] | 243 | 8.1 | –
Cn1c2ccccc2c(=O)c2c(=O)n(C3CCCC3)c(C(C)(C)C)nc21 [Example 2.6, 2-(tert-butyl)-3-cyclopentyl-10-methylpyrimido[4,5-b]quinoline-4,5(3H,10H)-dione] | – | – | Emax at 25 µM: 127%
Cn1c2ccccc2c(=O)c2c(=O)n(C3CCCCC3)c(C3CCCCC3)nc21 [2,3-dicyclohexyl-10-methylpyrimido[4,5-b]quinoline-4,5(3H,10H)-dione] | – | – | Emax [3]: < 5%
CC(C)c1nc2c(c(=O)c3cc(C#N)ccc3n2C)c(=O)n1C1CCCC1 [Example 2.14, 3-cyclopentyl-2-isopropyl-10-methyl-4,5-dioxo-3,4,5,10-tetrahydropyrimido[4,5-b]quinoline-7-carbonitrile] | 9 | 6.6 | –
CCCc1nc2c(c(=O)c3ccccc3n2C)c(=O)n1C1CCCCC1 [Example 2.24, 3-cyclohexyl-10-methyl-2-propylpyrimido[4,5-b]quinoline-4,5(3H,10H)-dione] | 170 | 2.3 | –
CC(C)c1nc2c(c(=O)c3ccccc3n2C)c(=O)n1N1CCCCC1 [Example 2.8, 2-isopropyl-10-methyl-3-(piperidin-1-yl)pyrimido[4,5-b]quinoline-4,5(3H,10H)-dione] | 264 | 10.6 | –
Cn1c2ccccc2c(=O)c2c(=O)n(-c3ccccc3)c(C3CC3)nc21 [Example 1.11, 2-cyclopropyl-10-methyl-3-phenylpyrimido[4,5-b]quinoline-4,5(3H,10H)-dione] | 188 | 9.1 | –
CC(C)c1nc2c(c(=O)c3ccccc3n2C)c(=O)n1C1CCCCC1 [Example 2.29, 3-cyclohexyl-2-isopropyl-10-methylpyrimido[4,5-b]quinoline-4,5(3H,10H)-dione] | 73 | 14.3 | –
